The text below walks through data of ChEMBL document CHEMBL1909592, “Targeting the prostaglandin F2α receptor for preventing preterm labor with azapeptide tocolytics” (J Med Chem, 2011).

Activity calls are given as the source filed them. The rule behind the calls is not given here. Square brackets hold non-standard residues; d marks the D form. Peptide text beside a SMILES is read from it. * marks the point of attachment. dCit = NC(=O)NCCC[C@@H](N)C(=O)O; 3Pal = N[C@@H](Cc1cccnc1)C(=O)O; β3hF = N[C@H](CC(=O)O)Cc1ccccc1; PhAc = O=C(Cc1ccccc1)*; azaGly = NNC(=O)O

The target in experiment [1] is Prostaglandin F2-alpha receptor (Mus musculus) (UniProt P43117). Put plainly: Antagonist activity at FP receptor in postpartum mouse myometrial strip assessed as inhibition of PGF-2alpha-induced uterine contractions. Format: functional.
The target of experiment [2] is Prostaglandin F2-alpha receptor (Bos taurus, UniProt P37289). Put plainly: Antagonist activity at FP receptor in bovine myometrial strip assessed as inhibition of PGF-2alpha-induced contractions. Format: functional.
For experiment [3], the target named is Prostaglandin F2-alpha receptor (Bos taurus) (UniProt P37289). Particulars: 100 uM.
Description: Antagonist activity at FP receptor in bovine myometrial strip assessed as inhibition of PGF-2alpha-induced contractions at 100 uM
For experiment [4], the target named is Prostaglandin F2-alpha receptor (Ovis aries, UniProt Q28905). Nature of the experiment: Antagonist activity at FP receptor in sheep myometrial strip assessed as inhibition of PGF-2alpha-induced contractions. Format: functional.
For experiment [5], the species on record is Mus musculus. Nature of the experiment: Inhibition of PGF-2alpha-induced uterine contractions in pregnant mouse assessed as time delay in preterm labor at 0.8 mg/day. Format: functional.
The target in experiment [6] is Prostaglandin F2-alpha receptor (Ovis aries) (UniProt Q28905). The following applies: 100 uM.
Description: Antagonist activity at FP receptor in sheep myometrial strip assessed as inhibition of PGF-2alpha-induced contractions at 100 uM
Experiment [7] has as its target Prostaglandin F2-alpha receptor (Mus musculus) (UniProt P43117). Particulars: 100 uM.
Description: Antagonist activity at FP receptor in mouse myometrial strip assessed as inhibition of PGF-2alpha-induced contractions at 100 uM
Experiment [8] has as its target Prostaglandin F2-alpha receptor (Mus musculus, UniProt P43117). Nature of the experiment: Antagonist activity at FP receptor in mouse myometrial strip assessed as inhibition of PGF-2alpha-induced contractions. Format: functional.
Experiment [9] can be described thus: Antagonist activity at FP receptor in pig retina assessed as inhibition of PGF-2alpha induced microvascular contraction. Format: functional, tissue-based, Sus scrofa.
Experiment [10] can be described thus: Antagonist activity at FP receptor in pig retina assessed as inhibition of PGF-2alpha induced microvascular contraction at 100 uM. Format: functional. Particulars: Sus scrofa.
Experiment [11] concerns the target Prostaglandin F2-alpha receptor (Homo sapiens) (UniProt P43088). Put plainly: Antagonist activity at human FP receptor expressed in HEK293 cells assessed as ERK1/2 activation at 1 uM after 30 mins by Western blot analysis. Format: functional, cell-based. On the technique in general: A western blot detects proteins with antibodies after separation by electrophoresis.

Experiment [12] has the same target. Put plainly: Antagonist activity at human FP receptor expressed in HEK293 cells assessed as inhibition of PGF-2alpha-mediated cell ruffling at 1 uM after 30 mins by immunofluorescence assay (reference value: 65.7 +/- 1.6 %). Format: functional, cell-based.
Experiment [13] shares this target. Nature of the experiment: Antagonist activity at human FP receptor expressed in HEK293 cells assessed as potentiation of PGF-2alpha-induced Galphaq-mediated PKC/ERK1/2 activation at 1 uM after 30 mins by Western blot analysis. Format: functional, cell-based.
Experiment [14] shares this target. Nature of the experiment: Antagonist activity at human FP receptor expressed in HEK293 cells assessed as inhibition of cell ruffling at 1 uM after 30 mins by immunofluorescence assay. Format: functional, cell-based.
For experiment [15], the system named is Mus musculus. Nature of the experiment: Inhibition of LPS-induced uterine contractions in pregnant CD-1 mouse assessed as time delay in preterm labor at 0.1 mg, ip administered as bolus dose immediately followed by 10 mg, sc. Format: functional.
Experiment [16] relates to Mus musculus. Put plainly: Inhibition of PGF-2alpha-induced uterine contractions in pregnant CD-1 mouse assessed as time delay in preterm labor at 0.1 mg, ip administered as bolus dose immediately followed by 10 mg, sc. Format: functional.

Chain of Prostaglandin F2-alpha receptor (Mus musculus) (P43117 whole entry): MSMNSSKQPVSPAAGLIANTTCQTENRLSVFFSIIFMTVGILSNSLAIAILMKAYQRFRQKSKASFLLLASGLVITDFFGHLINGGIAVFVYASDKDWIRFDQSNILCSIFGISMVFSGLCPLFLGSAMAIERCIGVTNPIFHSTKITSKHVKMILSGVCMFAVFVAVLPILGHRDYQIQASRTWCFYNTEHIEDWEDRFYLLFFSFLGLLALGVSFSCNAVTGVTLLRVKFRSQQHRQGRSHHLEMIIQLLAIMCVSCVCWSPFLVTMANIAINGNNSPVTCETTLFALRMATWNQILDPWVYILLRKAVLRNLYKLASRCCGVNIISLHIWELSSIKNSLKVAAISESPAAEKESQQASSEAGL
Chain of Prostaglandin F2-alpha receptor (Homo sapiens) (P43088 whole entry): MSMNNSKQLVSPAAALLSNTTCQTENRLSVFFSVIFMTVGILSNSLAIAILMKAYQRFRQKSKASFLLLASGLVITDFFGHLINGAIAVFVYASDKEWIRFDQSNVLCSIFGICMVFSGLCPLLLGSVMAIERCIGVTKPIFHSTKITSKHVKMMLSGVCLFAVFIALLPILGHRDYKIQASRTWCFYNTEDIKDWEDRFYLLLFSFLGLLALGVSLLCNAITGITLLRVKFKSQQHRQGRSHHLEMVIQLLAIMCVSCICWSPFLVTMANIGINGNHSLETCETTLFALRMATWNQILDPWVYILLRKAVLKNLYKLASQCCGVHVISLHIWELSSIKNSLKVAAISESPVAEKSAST
Chain of Prostaglandin F2-alpha receptor (Mus musculus, UniProt P43117) (P43117 whole entry): as the sequence (P43117 whole entry) above
Chain of Prostaglandin F2-alpha receptor (Bos taurus, UniProt P37289) (P37289 whole entry): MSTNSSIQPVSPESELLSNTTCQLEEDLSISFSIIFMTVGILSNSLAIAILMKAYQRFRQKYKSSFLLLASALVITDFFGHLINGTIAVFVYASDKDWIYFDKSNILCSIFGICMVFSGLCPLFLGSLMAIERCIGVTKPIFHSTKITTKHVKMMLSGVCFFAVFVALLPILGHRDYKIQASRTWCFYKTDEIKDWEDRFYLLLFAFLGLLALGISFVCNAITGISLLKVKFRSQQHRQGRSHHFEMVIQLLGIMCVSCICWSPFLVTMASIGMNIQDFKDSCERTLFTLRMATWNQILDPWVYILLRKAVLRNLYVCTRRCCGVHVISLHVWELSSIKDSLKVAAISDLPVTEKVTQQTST
Chain of Prostaglandin F2-alpha receptor (Bos taurus) (P37289 whole entry): as above
Chain of Prostaglandin F2-alpha receptor (Ovis aries, UniProt Q28905) (Q28905 whole entry): as the sequence (P37289 whole entry) above, with S5N, I7V, E13A, E192Q, D340N counted along it
Chain of Prostaglandin F2-alpha receptor (Ovis aries) (Q28905 whole entry): as the sequence (P37289 whole entry) above, with S5N, I7V, E13A, E192Q, D340N counted along it

For orientation: inhibition means the drop in the measured response relative to a control, in per cent. `O=C(O)C[C@H](Cc1ccccc1)NC(=O)[C@H](Cc1cccnc1)NC(=O)[C@@H]1CCC[C@@H]2CC[C@H](NC(=O)Cc3ccccc3)C(=O)N21`: in [1], the inhibition result is “inactive”.
As a reminder, the IC50 is the midpoint of a concentration-inhibition curve. Consider `CC[C@@H](C)[C@@H](N)C(=O)N[C@H](CC(C)C)C(=O)NCC(=O)N[C@H](Cc1cnc[nH]1)C(=O)N[C@H](CCCNC(N)=O)C(=O)N[C@H](CC(=O)O)C(=O)N[C@H](Cc1ccc(O)cc1)C(=O)N[C@H](CCCCN)C(=O)O` (H-[dI][dL]G[dH][dCit][dD][dY][dK]-OH), for which the IC50 in experiment [2], in [4] and in [8] was 13 nM each time. Besides, the inhibition in experiment [3], in experiment [6] and in [7] was over 85% each time. Also, in [5], the Time worked out at 48 h.
For the compound `CN(NC(=O)Cc1ccccc1)C(=O)N1CCC[C@H]1C(=O)N[C@@H](Cc1cccnc1)C(=O)N[C@H](CC(=O)O)Cc1ccccc1`, in [1], the inhibition entry is “inactive”.
Turning to `C=CCN(NC(=O)Cc1ccccc1)C(=O)N1CCC[C@H]1C(=O)N[C@@H](Cc1cccnc1)C(=O)N[C@H](CC(=O)O)Cc1ccccc1`, in [1], the inhibition result was “inactive”.
`NC(=O)NCCC[C@H](NC(=O)[C@H]1CC[C@H]2CC[C@@H](NC(=O)Cc3ccccc3)C(=O)N21)C(=O)N[C@H](CC(=O)O)Cc1ccccc1`: the inhibition result in experiment [1] was “inactive”.
As for `CC[C@@H](C)[C@@H](N)C(=O)N[C@H](CC(C)C)C(=O)NCC(=O)N[C@H](Cc1cnc[nH]1)C(=O)N[C@H](CCCNC(=N)N)C(=O)N[C@H](CC(=O)O)C(=O)N[C@H](Cc1ccc(O)cc1)C(=O)N[C@H](CCCCN)C(=O)O` (H-[dI][dL]G[dH][dR][dD][dY][dK]-OH), in experiment [9], the IC50 is 340 nM. In [10], the inhibition at 100 µM was over 80%.
On to `C#CCN(NC(=O)Cc1ccccc1)C(=O)N1CCC[C@H]1C(=O)N[C@@H](Cc1cccnc1)C(=O)N[C@H](CC(=O)O)Cc1ccccc1`, for which the result in experiment [11] was inactive. The inhibition in [12] was determined as 56.7%. The result in [13] was Active. Besides, the inhibition result in experiment [1] was “Active”. For the same compound, the inhibition result in experiment [14] is “inactive”.
Consider `O=C(O)C[C@H](Cc1ccccc1)NC(=O)[C@H](Cc1cccnc1)NC(=O)[C@@H]1CCCN1C(=O)N(Cc1ccccc1)NC(=O)Cc1ccccc1`, for which the result in experiment [11] was inactive. The inhibition in [12] was found to be 37.4%. The result in experiment [13] was Active. For the same compound, the inhibition entry in experiment [1] was “Active”. Further, the inhibition result in [14] is “inactive”.
For `NC(=O)NCCC[C@@H](NC(=O)[C@H]1CC[C@H]2CC[C@@H](NC(=O)Cc3ccccc3)C(=O)N21)C(=O)N[C@@H](CC(=O)O)Cc1ccccc1`, in experiment [1], the inhibition result was “inactive”.
Take `O=C(O)C[C@H](Cc1ccccc1)NC(=O)[C@H](Cc1cccnc1)NC(=O)[C@@H]1CC[C@@H]2CC[C@H](NC(=O)Cc3ccccc3)C(=O)N21`: in experiment [12], the inhibition turned out to be 40.3%. The Time in [15] is 28 h; in [16] it was 42 h. Moreover, in experiment [13], the outcome was Active. In addition, the inhibition entry in experiment [1] was “Active”.
As to `O=C(O)C[C@H](Cc1ccccc1)NC(=O)[C@H](Cc1cccnc1)NC(=O)[C@@H]1CCC[C@@H]2C[C@H](NC(=O)Cc3ccccc3)C(=O)N21`, the inhibition entry in experiment [1] was “inactive”.
As to `O=C(O)C[C@H](Cc1ccccc1)NC(=O)[C@H](Cc1cccnc1)NC(=O)[C@@H]1CCCN1C(=O)NNC(=O)Cc1ccccc1` (PhAc-[azaGly]P[3Pal][β3hF]-OH), the outcome in [11] was inactive. The inhibition in [12] is 37.5%. Moreover, the outcome in experiment [13] was Active. Moreover, in experiment [1], the inhibition entry was “Active”. In addition, the inhibition entry in [14] was “inactive”.
